Reference: patent publication US8258160B2, “SCD1 inhibitors triazole and tetrazole compounds” (Novartis AG, priority 2006, dated 2012)
pIC50: −log10 of the molar value.

How the values were obtained:
[1] = molecular target: T1, stearoyl-CoA desaturase (SCD1) (Mus musculus, UniProt P13516); test: SCD microsomal assay: release of 3H2O from [9,10-3H]stearoyl-CoA in mouse liver microsomes; format: biochemical; conditions: 15 min incubation, 25° C.
T1 construct: Reactions are started by adding 50 μL of microsomes (1.25 mg/mL); from tissue; host or cells: liver microsomes of male ICR outbred mice on a high-carbohydrate, low-fat diet
T1 sequence (P13516 1-355): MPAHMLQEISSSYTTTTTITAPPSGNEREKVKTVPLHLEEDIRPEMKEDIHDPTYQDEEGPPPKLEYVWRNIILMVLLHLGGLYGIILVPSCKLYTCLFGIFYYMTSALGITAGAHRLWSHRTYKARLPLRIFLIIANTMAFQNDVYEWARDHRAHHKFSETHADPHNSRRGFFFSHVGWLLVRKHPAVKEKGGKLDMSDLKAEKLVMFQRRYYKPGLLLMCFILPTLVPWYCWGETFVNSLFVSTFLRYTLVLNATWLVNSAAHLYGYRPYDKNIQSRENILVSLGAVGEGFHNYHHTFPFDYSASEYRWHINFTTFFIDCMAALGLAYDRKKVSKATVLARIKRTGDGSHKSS
Excerpt: The identification of compounds of the invention as SCD inhibitors was readily accomplished using the SCD enzyme and microsomal assay procedure described in Shanklin J. and Summerville C., Proc. Natl. Acad. Sci. USA (1991), Vol. 88, pp. 2510-2514.
The identification of compounds of the invention as SCD inhibitors was readily accomplished using the SCD microsomal assay procedure described in Shanklin J. and Summerville C., Proc. Natl. Acad. Sci. USA (1991), Vol. 88, pp. 2510-2514.
Male ICR outbread mice, on a high-carbohydrate, low fat diet, under light halothane (15% in mineral oil) anesthesia are sacrificed by exsanguination during periods of high enzyme activity. Livers are immediately rinsed with cold 0.9% NaCl solution, weighed and minced with scissors. All procedures are performed at 4° C. unless specified otherwise. Livers are homogenized in a solution (1/3 w/v) containing 0.25 M sucrose, 62 mM potassium phosphate buffer (pH 7.0), 0.15 M KCl, 15 mM N-acetylcysteine, 5 mM MgCl2, and 0.1 mM EDTA using 4 strokes of a Potter-Elvehjem tissue homogenizer. The homogenate is centrifuged at 10,400×g for 20 min to eliminate mitochondria and cellular debris. The supernatant is filtered through a 3-layer cheesecloth and centrifuged at 105,000×g for 60 min. The microsomal pellet is gently resuspended in the same homogenization solution with a small glass/teflon homogenizer and stored at −70° C. The absence of mitochondrial contamination is enzymatically assessed. The protein concentration is measured using bovine serum albumin as the standard.
Desaturase activity is measured as the release of ^3H2O from [9,10-^3H]stearoyl-CoA. Reactions per assay point conditions are as follows: 2 μL 1.5 mM stearoyl-CoA, 0.25 μL 1 mCi/mL ^3H stearoyl CoA, 10 μL 20 mM NADH, 36.75 μL 0.1 M PK buffer (K2HPO4/NaH2PO4, pH 7.2). The test compound or control solution is added in a 1 μL volume. Reactions are started by adding 50 μL of microsomes (1.25 mg/mL). The plates are mixed and after 15 min incubation on a heating block (25° C.), the reactions are stopped by the addition of 10 μL 60% PCA. An aliquot of 100 μL is then transferred to a filter plate pretreated with charcoal and the plate centrifuged at 4000 rpm for 1 min. The flow through containing the ^3H2O released by the SCD1 desaturation reaction is added to scintillation fluid and the radioactivity measured in a Packard TopCount. The data is analysed to identify the IC50 for test compounds and reference compounds. […] The activity was defined in terms of % SCD enzyme activity remaining at the desired concentration of the test compound or as the IC50 concentration. The IC50 (affinity) of the example compounds toward the stearoyl-CoA desaturase is comprised between around 20 μM and 0.0001 μM or between around 5 μM and 0.0001 μM or between around 1 μM and 0.0001 μM.

`Cc1nc(-c2nnn(Cc3ccc(F)cc3)n2)sc1C(=O)NCc1cccnc1` (single isomer, unassigned) [Example 7.1, 2-(2-(4-Fluorobenzyl)-2H-tetrazol-5-yl)-4-methyl-N-(pyridin-3-ylmethyl)thiazole-5-carboxamide] showed a pIC50 [1] of 6.29 and a melting point of 148 to 149 °C.

`Cc1nc(-c2nnnn2Cc2ccc(C(F)(F)F)cc2)sc1C(=O)NCc1cccnc1` (single isomer, unassigned) [Example 7.2, 4-Methyl-N-(pyridin-3-ylmethyl)-2-(1-(4-(trifluoromethyl)benzyl)-1H-tetrazol-5-yl)thiazole-5-carboxamide] gave a pIC50 [1] of 6.80 and a melting point of 175 to 176 °C.

Work on `Cc1nc(-c2nnn(CC3CC3)n2)sc1C(=O)NCc1cccnc1` (single isomer, unassigned) [Example 7.3, 2-(2-(Cyclopropylmethyl)-2H-tetrazol-5-yl)-4-methyl-N-(pyridin-3-ylmethyl)thiazole-5-carboxamide] yielded a pIC50 [1] of 6.51 and a melting point of 149 to 150 °C.

Work on `Cc1nc(-c2cn(CCc3ccc(F)cc3)nn2)sc1C(=O)NCc1ccccc1` [Example 1, N-benzyl-2-(1-(4-fluorophenethyl)-1H-1,2,3-triazol-4-yl)-4-methylthiazole-5-carboxamide] yielded a pIC50 [1] of 7.70 and a melting point of 181 to 182 °C.

`Cc1nc(-c2cn(Cc3ccccc3)nn2)sc1C(=O)NCc1ccccc1` [Example 1.1, N-benzyl-2-(1-benzyl-1H-1,2,3-triazol-4-yl)-4-methylthiazole-5-carboxamide] gave a pIC50 [1] of 7.52 and a melting point of 108 to 109 °C.

For `Cc1nc(-c2cn(CCc3ccc(F)cc3)nn2)sc1C(=O)NCc1cccnc1` [Example 4.3, 2-(1-(4-fluorophenethyl)-1H-1,2,3-triazol-4-yl)-4-methyl-N-(pyridin-3-ylmethyl)thiazole-5-carboxamide], the pIC50 [1] was 6.92 and the melting point was 149 to 150 °C.

`Cc1nc(-n2cc(Cc3ccccc3)nn2)sc1C(=O)NCc1ccccc1` [Example 10.1, N-benzyl-2-(4-benzyl-1H-1,2,3-triazol-1-yl)-4-methylthiazole-5-carboxamide] showed a pIC50 [1] of 7.22 and a melting point of 139 to 141 °C.

In the case of `Cc1nc(-n2cc(CCC3CCCCC3)nn2)sc1C(=O)NCc1ccccc1` [Example 10.14, N-benzyl-2-(4-(2-cyclohexylethyl)-1H-1,2,3-triazol-1-yl)-4-methylthiazole-5-carboxamide], the pIC50 [1] was 6.62 and the melting point was 82 to 84 °C.

In the case of `Cc1nc(-n2cc(C(=O)NCc3ccc(F)cc3)nn2)sc1C(=O)NCc1ccccc1` [Example 18.1, N-benzyl-2-(4-(4-fluorobenzylcarbamoyl)-1H-1,2,3-triazol-1-yl)-4-methylthiazole-5-carboxamide], the pIC50 [1] was 8.00 and the melting point was 198 to 201 °C.

With `Cc1cc(-c2n[nH]c(Cc3ccccc3)n2)sc1C(=O)NCc1cccnc1` [Example 26, 5-(5-benzyl-1H-1,2,4-triazol-3-yl)-3-methyl-N-(pyridin-3-ylmethyl)thiophene-2-carboxamide] the pIC50 [1] was 6.52 and the melting point was 82 °C (dec.).

`Cc1nc(-c2cc(Cc3ccccc3)no2)sc1C(=O)NCc1ccccc1` [Example 27, N-benzyl-2-(3-benzylisoxazol-5-yl)-4-methylthiazole-5-carboxamide] showed a pIC50 [1] of 6.22 and a melting point of 103 to 104 °C.
